What all share (assay type): cell-based
Holding throughout (details): single active

One test deals with Septoria tritici. Put plainly: Activity against leaf blotch on wheat caused by Septoria tritici (Septtr), microtiter plate.
The subject of a further test is Phytophthora infestans.
The subject of another test is Botrytis cinerea. Put plainly: Activity against the grey mold Botrytis cinerea in the microtiterplate test (Botrci).
The subject of the next test is Pyricularia oryzae.
Setting [1] is: 63 ppm, 405 nm, 7 days after inoculation.
Setting [2] is: 4 ppm, 405 nm, 7 days after inoculation.

Like-named read-outs stand apart in the source and are kept apart here.

The compound `COC=C(C(=O)OC)c1ccccc1COc1cccc(C(F)(F)F)n1` [Picoxystrobin, methyl 3-methoxy-2-[2-(6-trifluoromethylpyridin-2-yloxymethyl)phenyl]acrylate] showed an Observed efficacy in the test with Septoria tritici (0.063 ppm, 7 days) of 63%.
Turning to `CCNC(=O)NC(=O)C(C#N)=NOC` [Cymoxanil, 1-(2-cyano-2-methoxyiminoacetyl)-3-ethylurea], the Observed efficacy with Phytophthora infestans (0.25 ppm, 405 nm, 7 days after inoculation) is on record as 32%; in the test on Botrytis cinerea (setting [1]), 17%; in the test on Pyricularia oryzae (setting [1]) it was 8%.
With `CC(C)(C)C(O)(CCc1ccc(Cl)cc1)Cn1cncn1` (centres unmarked) [Tebuconazol, 1-(4-chlorophenyl)-4,4-dimethyl-3-[1,2,4]triazol-1-ylmethylpentan-3-ol], in the test on Septoria tritici (0.25 ppm, 7 days), the Observed efficacy worked out at 67%.
Take `Fc1ccc(Oc2ccnc3cc(Cl)cc(Cl)c23)cc1` [Quinoxyfen, 5,7-dichloro-4-(4-fluorophenoxy)quinoline]: the Observed efficacy with Pyricularia oryzae (16 ppm, 7 days) worked out at 4%.
With `CC(c1ccc(C(F)(F)F)nc1)S(C)(=O)=NC#N` (centres unmarked) [C.I.10], the Observed efficacy with Phytophthora infestans (1 ppm, 7 days) stood at 0%; in the test on Septoria tritici (1 ppm, 7 days), 0%; in the test with Septoria tritici (setting [2]) it was 2%; with Botrytis cinerea (4 ppm, 7 days), 3%.
As to `N#Cc1sc2c(=O)c3ccccc3c(=O)c=2sc1C#N` [Dithianon, 5,10-dioxo-5,10-dihydronaphtho[2,3-b][1,4]dithiin-2,3-dicarbonitrile], the Observed efficacy with Botrytis cinerea (0.25 ppm, 7 days) is 12%.
`CC(C)OC(=O)N[C@H](C(=O)N[C@H](C)c1nc2ccc(F)cc2s1)C(C)C` [Benthivalicarb, isopropyl {(S)-1-[(1R)-1-(6-fluorobenzothiazol-2-yl)-ethylcarbamoyl]-2-methylpropyl}carbamate] yielded an Observed efficacy with Phytophthora infestans (0.063 ppm, 7 days) of 65%.
`Fc1ccc([C@]2(Cn3cncn3)O[C@H]2c2ccccc2Cl)cc1` (racemic) [Epoxiconazol, (2RS,3SR)-1-[3-(2-chlorophenyl)-2,3-epoxy-2-(4-fluorophenyl)propyl]-1H-1,2,4-triazole]: the Observed efficacy in the test with Septoria tritici (0.063 ppm, 7 days) worked out at 68%; in the test on Botrytis cinerea (0.063 ppm, 7 days), 3%.
For `CO/N=C(/C1=NOCCO1)c1ccccc1Oc1ncnc(Oc2ccccc2Cl)c1F` [Fluoxastrobin, (E)-{2-[6-(2-chlorophenoxy)-5-fluoropyrimidin-4-yloxy]phenyl}(5,6-dihydro-1,4,2-dioxazin-3-yl)methanone O-methyloxime], in the test on Septoria tritici (0.016 ppm, 7 days), the Observed efficacy came to 15%.
Consider `N#CN=S1(=O)CCCC1Cc1ccc(Cl)nc1` (centres unmarked) [C.I.5], for which the Observed efficacy turned out to be 0% in the test with Phytophthora infestans (1 ppm, 7 days); 0% in the test on Septoria tritici (0.25 ppm, 7 days); 2% in the test with Septoria tritici (setting [2]); 0% in the test on Botrytis cinerea (16 ppm, 7 days); 3% with Pyricularia oryzae (16 ppm, 7 days).

The values are drawn from patent US20140179518A1, “Pesticidal Mixtures Comprising Cyanosulfoximine Compounds” (BASF SE, priority 2007, published 2014).
